Source: US6277859A, “Morphinan derivative and its pharmaceutical applications” (priority 1992, dated 2001)
Counter-ions that a name gives are not always drawn.

Tests used:
[1] = system: isolated mouse vas deference; assay: Opioid activity test using the isolated mouse vas deference preparation (electrically stimulated contractions); assay type: cell-based, mouse (male ddy); conditions: suppression of electrically stimulated contractions
Description: Opioid Activity Test Using the Isolated Mouse Vas Deference Preparation
(§1) A male ddy mouse was used in this test. The isolated vas deference was filled with Krebes-Henseleit solution (NaCl 118 mM; KCl 4.7 mM; CaCl2 2.5 mM; KH2 PO4 1.1 mM; NaHCO3 25 mM; and glucose 10 mM) warmed to 37° C. and suspended in a Magnus tube ventilated with 5% carbon dioxide and 95% oxygen. Electrical stimulus was performed at 0.1 Hz for 5.0 ms by means of ring-shaped platinum electrodes located above and below. Tissue contractions were recorded on a polygraph using an isometric transducer.
(§2) Then after adequately washing with nutrient solution and the contraction reaction stabilized, naloxone, a μ agonist, NTI, a δ agonist, or norBNI, a κ […], were added and the test compound was again cumulatively added after roughly 20 minutes. The Ke value was calculated using the following calculation formula from the difference in the efficacies of both agonists.

μ receptor = biological target: T1, μ receptor (Mus musculus, UniProt P42866); assay: Ke with naloxone in isolated mouse vas deference preparation; assay type: cell-based, mouse (male ddy)
T1 construct: The isolated vas deference was filled with Krebes-Henseleit solution; from tissue; host or cells: isolated vas deferens of male ddy mouse
Description: as §1, §2
(§3) Ke=[Conc. of added agonist]/(IC50 ratio-1)
(§4) IC50 ratio IC50 in the presence of agonist/IC50 in the absence of agonist

δ receptor = biological target: T2, δ receptor (Mus musculus, UniProt P32300); assay: Ke with NTI in isolated mouse vas deference preparation; assay type: cell-based, mouse (male ddy); conditions: for Ke NTI: NTI (δ)
T2 construct: The isolated vas deference was filled with Krebes-Henseleit solution; from tissue; host or cells: isolated vas deferens of male ddy mouse
Description: as §1, §2, §3, §4

κ receptor [2] = biological target: T3, κ receptor (Mus musculus, UniProt P33534); assay: Ke with norBNI in isolated mouse vas deference preparation; assay type: cell-based, mouse (male ddy); conditions: for Ke norBNI: norBNI (κ)
T3 construct: The isolated vas deference was filled with Krebes-Henseleit solution; from tissue; host or cells: isolated vas deferens of male ddy mouse
Description: as §1, §2, §3, §4

ddY mice = assay: animal or person; assay type: in vivo, mouse (ddY); conditions: mouse, s.c. 15 min before i.p. 0.6% acetic acid
Description: Analgesic Activity Test Using the Acetic Acid-induced Writhing Method
5 week old ddY mice were used in this test. After intraperitoneal administration of 0.1 ml of 0.6% aqueous acetic acid per 10 g of body weight, the number of writhing reactions that occurred in 10 minutes starting 10 minutes after administration was evaluated for the indicator. The test drug was administered subcutaneously into the backs of the animals 15 minutes before administration of acetic acid.

Wistar rats = assay: Evaluation of diuretic action; assay type: in vivo, rat (male Wistar); conditions: sc, rat, s.c., urine output for 5 h after 20 ml/kg saline oral; for ED200: read-out: ED200, diuretic action (dose giving urine output of 200, non-dosed group = 100)
Description: Evaluation of Diuretic Action
7-8 week old male Wistar rats were used in this test after prohibiting from drinking water for 1 hour before testing. After discharging any urine accumulated in the bladder by gently stimulating the lower abdomens of the animals, the drug was administered subcutaneously. After 30 minutes, the animals were then forcibly given 20 ml/kg of physiological saline orally. The animals were then placed in metabolic cages immediately after administration of the drug (2 animals/cage) and urine output for 5 hours after loading with physiological saline was measured. Drug efficacy was expressed in the form of those doses resulting in urine outputs of 200 and 500, respectively, when the urine output of a non-dosed group was taken to be 100. Those doses were expressed as the ED200 and ED500 values, respectively.

κ receptor [3] = biological target: T4, κ receptor (Cavia porcellus, UniProt P41144); assay: Ke with norBNI in isolated guinea pig preparation; assay type: cell-based, guinea pig (male Hartley); conditions: guinea pig ileum
T4 construct: from tissue; host or cells: longitudinal muscle of the ileum of male Hartley guinea pig
Description: A male Hartley guinea pig was used in this test.
After sacrificing the guinea pig and extracting the ileum, the lumen was washed with nutrient solution and only the longitudinal muscle was isolated. This longitudinal muscle was filled with Krebes-Henseleit solution (NaCl 118 mM; KCl 4.7 mM; CaCl2 2.5 mM; KH2 PO4 1.2 mM; NaHCO3 25 mM; MgSO4 1.2 mM and glucose 10 mM) warmed to 37° C. and suspended in a Magnus tube ventilated with 5% carbon dioxide and 95% oxygen. Electrical stimulus was performed at 0.1 Hz for 5.0 ms by means of ring-shaped platinum electrodes located above and below. Tissue contractions were recorded on a polygraph using an isometric transducer.
as §2, with “antagonist,” for “agonist, NTI, a δ agonist,”
Ke=[Conc. of added antagonist]/(IC50 ratio-1)
IC50 ratio=IC50 in the presence of antagonist/IC50 in the absence of antagonist

T3 sequence (P33534 whole entry): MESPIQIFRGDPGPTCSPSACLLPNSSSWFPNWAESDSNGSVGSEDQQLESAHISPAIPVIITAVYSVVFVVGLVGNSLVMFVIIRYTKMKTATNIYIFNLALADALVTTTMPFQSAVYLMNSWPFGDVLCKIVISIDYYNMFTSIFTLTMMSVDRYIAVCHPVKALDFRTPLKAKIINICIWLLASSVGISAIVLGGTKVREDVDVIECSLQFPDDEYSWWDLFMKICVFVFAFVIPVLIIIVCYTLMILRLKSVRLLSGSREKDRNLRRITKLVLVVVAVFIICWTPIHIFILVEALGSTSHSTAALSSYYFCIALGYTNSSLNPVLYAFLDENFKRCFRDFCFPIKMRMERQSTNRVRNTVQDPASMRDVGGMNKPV
T1 sequence (P42866 whole entry): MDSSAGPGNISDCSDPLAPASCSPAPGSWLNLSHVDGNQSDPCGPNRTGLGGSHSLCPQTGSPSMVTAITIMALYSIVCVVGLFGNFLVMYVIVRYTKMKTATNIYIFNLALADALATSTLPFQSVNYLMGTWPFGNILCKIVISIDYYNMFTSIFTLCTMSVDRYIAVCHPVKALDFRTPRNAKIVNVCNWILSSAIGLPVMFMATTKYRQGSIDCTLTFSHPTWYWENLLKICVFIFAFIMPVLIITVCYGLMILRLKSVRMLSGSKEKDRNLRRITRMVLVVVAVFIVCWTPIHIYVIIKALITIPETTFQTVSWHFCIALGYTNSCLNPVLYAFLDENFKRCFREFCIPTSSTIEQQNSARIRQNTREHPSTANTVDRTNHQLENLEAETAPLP
T2 sequence (P32300 whole entry): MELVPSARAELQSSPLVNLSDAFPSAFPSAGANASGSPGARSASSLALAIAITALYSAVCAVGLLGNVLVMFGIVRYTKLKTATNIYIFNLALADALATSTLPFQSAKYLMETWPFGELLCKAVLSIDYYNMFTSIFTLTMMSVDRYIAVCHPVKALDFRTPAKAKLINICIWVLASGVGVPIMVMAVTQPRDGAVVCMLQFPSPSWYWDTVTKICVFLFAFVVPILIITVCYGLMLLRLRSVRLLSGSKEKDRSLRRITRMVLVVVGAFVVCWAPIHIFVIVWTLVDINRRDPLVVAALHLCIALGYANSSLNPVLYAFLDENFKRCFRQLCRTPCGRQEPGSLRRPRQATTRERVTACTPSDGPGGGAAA
T4 sequence (P41144 whole entry): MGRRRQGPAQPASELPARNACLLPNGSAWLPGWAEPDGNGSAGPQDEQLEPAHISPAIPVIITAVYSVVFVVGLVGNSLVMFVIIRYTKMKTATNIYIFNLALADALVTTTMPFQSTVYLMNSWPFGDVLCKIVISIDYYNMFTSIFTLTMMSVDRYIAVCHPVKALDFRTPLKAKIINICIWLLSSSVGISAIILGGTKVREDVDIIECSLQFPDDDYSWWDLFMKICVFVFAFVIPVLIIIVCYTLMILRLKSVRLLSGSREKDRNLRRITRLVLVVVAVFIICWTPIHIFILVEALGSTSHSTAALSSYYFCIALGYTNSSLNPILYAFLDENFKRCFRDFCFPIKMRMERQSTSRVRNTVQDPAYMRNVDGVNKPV

COc1cccc(/C=C/C(=O)N(C)[C@@H]2CC[C@@]3(O)[C@H]4Cc5ccc(O)c6c5[C@@]3(CCN4CC3CC3)[C@H]2O6)c1 [Compound 63]
IC50 [1]: 0.746 nM
Ke Naloxone (μ receptor): 60.9 nM
Ke NTI (δ receptor): 96.9 nM
selective agonist for κ receptors (in words) (κ receptor [2]): selective agonists for κ receptors
Ke norBNI (κ receptor [2]): 1.60 nM
ED50 (ddY mice; sc, read-out: ED50, acetic acid writhing): 1.1 µg/kg
ED200 (Wistar rats): 3.8 µg/kg

CN(C(=O)/C=C/c1cccc(F)c1)[C@H]1CC[C@@]2(O)[C@H]3Cc4ccc(O)c5c4[C@@]2(CCN3CC2CC2)[C@H]1O5 [Compound 96, 17-cyclopropylmethyl-3,14β-dihydroxy-4,5α-epoxy-6α-(N-methyl-3-fluorocinnamamido)morphinan.tartrate]
Ke Naloxone (μ receptor): 32.5 nM
selective agonist for δ receptors (in words) (δ receptor): selective agonists for δ receptors
Ke NTI (δ receptor): 1.61 nM
Ke norBNI (κ receptor [2]): 4.21 nM
ED50, acetic acid writhing (ddY mice): 0.86 µg/kg
ED200 (Wistar rats): 1.3 µg/kg

CN(C(=O)CC(=O)c1ccccc1)[C@H]1CC[C@@]2(O)[C@H]3Cc4ccc(O)c5c4[C@@]2(CCN3CC2CC2)[C@H]1O5 [Compound 98, 17-cyclopropylmethyl-3,14β-dihydroxy-4,5α-epoxy-6α-(N-methylbenzoylacetamido)morphinan.tartrate]
selective agonist for κ receptors (in words) (κ receptor [2]): selective agonists for κ receptors
Ke norBNI (κ receptor [2]): 1.35 nM
ED50, acetic acid writhing (ddY mice): 6.8 µg/kg
ED200 (Wistar rats): 6.5 µg/kg

CC(=O)Oc1ccc2c3c1O[C@H]1[C@H](N(C)C(=O)/C=C/c4ccccc4)CC[C@@]4(O)[C@@H](C2)N(CC2CC2)CC[C@]314 [Compound 140, 17-Cyclopropylmethyl-3-acetoxy-14β-hydroxy-4,5α-epoxy-6β-(N-methylcinnamamido)morphinan.tartrate]
Ke Naloxone (μ receptor): 320 nM
Ke NTI (δ receptor): 261 nM
selective agonist for κ receptors (in words) (κ receptor [2]): selective agonists for κ receptors
Ke norBNI (κ receptor [2]): 1.06 nM
ED50, acetic acid writhing (ddY mice): 3.4 µg/kg

CN(C(=O)OCc1ccccc1)[C@H]1CC[C@@]2(O)[C@H]3Cc4ccc(O)c5c4[C@@]2(CCN3CC2CC2)[C@H]1O5 [Compound 42, 17-cyclopropylmethyl-3,14β-dihydroxy-4,5α-epoxy-6α-(N-methylbenzyloxycarbamido)morphinan.tartrate]
Ke Naloxone (μ receptor): 186 nM
Ke NTI (δ receptor): 63.5 nM
selective agonist for κ receptors (in words) (κ receptor [2]): selective agonists for κ receptors
Ke norBNI (κ receptor [2]): 0.905 nM
ED50, acetic acid writhing (ddY mice): 1.36 µg/kg
ED500 (Wistar rats; read-out: ED500, diuretic action (dose giving urine output of 500, non-dosed group = 100)): 6.1 µg/kg
ED200 (Wistar rats): 0.85 µg/kg

CN(C(=O)/C=C/c1ccccc1)[C@@H]1CC[C@@]2(O)[C@H]3Cc4ccc(O)c5c4[C@@]2(CCN3CC2CC2)[C@H]1O5 [Compound 99, 17-cyclopropylmethyl-3,14β-dihydroxy-4,5α-epoxy-6β-(N-methylcinnamamido)morphinan.hydrochloride]
Ke Naloxone (μ receptor): 94.5 nM
selective agonist for κ receptors (in words) (κ receptor [2]): selective agonists for κ receptors
Ke norBNI (κ receptor [2]): 0.652 nM
ED50, acetic acid writhing (ddY mice): 1.8 µg/kg
ED200 (Wistar rats): 1.1 µg/kg

CN(C(=O)CSc1ccccc1)[C@H]1CC[C@@]2(O)[C@H]3Cc4ccc(O)c5c4[C@@]2(CCN3CC2CC2)[C@H]1O5 [Compound 45, 17-cyclopropylmethyl-4,5α-epoxy-3,14,β-dihydroxy-6α-(N-methylthiophenoxyacetamido)morphinan.tartrate]
Ke Naloxone (μ receptor): 26.5 nM
Ke NTI (δ receptor): 135 nM
selective agonist for κ receptors (in words) (κ receptor [2]): selective agonists for κ receptors
Ke norBNI (κ receptor [2]): 0.416 nM
ED50, acetic acid writhing (ddY mice): 3.8 µg/kg
ED200 (Wistar rats): 8.1 µg/kg

CCCCOC(=O)N(C)[C@H]1CC[C@@]2(O)[C@H]3Cc4ccc(O)c5c4[C@@]2(CCN3CC2CC2)[C@H]1O5 [Compound 47, 17-cyclopropylmethyl-4,5α-epoxy-3,14β-dihydroxy-6α-(N-methylbutyroxycarbamido)morphinan.tartrate]
Ke Naloxone (μ receptor): 63.5 nM
Ke NTI (δ receptor): 10.4 nM
selective agonist for κ receptors (in words) (κ receptor [2]): selective agonists for κ receptors
Ke norBNI (κ receptor [2]): 0.140 nM
ED50, acetic acid writhing (ddY mice): 0.52 µg/kg
ED200 (Wistar rats): 1.6 µg/kg

CN(C(=O)Cc1ccc(Cl)c(Cl)c1)[C@H]1CC[C@@]2(O)[C@H]3Cc4ccc(O)c5c4[C@@]2(CCN3CC2CC2)[C@H]1O5 [Compound 1, 17-cyclopropylmethyl-4,5α-epoxy-3,14β-dihydroxy-6α-(N-methyl-3,4-dichlorophenylacetamido)morphinan.hydrochloride]
Ke norBNI (κ receptor [3]): 0.16 nM
Ke Naloxone (μ receptor): 53 nM
Ke NTI (δ receptor): 17.3 nM
selective agonist for κ receptors (in words) (κ receptor [2]): selective agonists for κ receptors
Ke norBNI (κ receptor [2]): 0.548 nM
ED200 (Wistar rats): 2.7 µg/kg
